Results as given in paper PMC12692861, “Biotin-Linked Ursolic Acid Conjugates as Selective Anticancer Agents and Target-Identification Tools for Cancer Therapy” (Molecules, 2025).
Read-outs that look alike come from different tables or passages of the source.

Tests used:
MB49 = test: MTT antiproliferative assay; assay type: cell-based, murine; settings: for SI (selectivity index), MB49: IC50 UROtsa / IC50 MB49; for IC50: Mus musculus, MB49, MTT, 72 h, read-out: IC50 ± SD, MB49
Protocol: (§1) The IC50 values indicate that 5c is effective across multiple bladder cancer cell lines (Figure 2 and Table 2).
(§2) The antiproliferative activities of various compounds examined in this report were measured using the MTT (3-[4,5-dimethylthiazol-2-yl]-2,5-diphenyl-tetrazolium bromide) reduction assay, as previously described. Briefly, cells were seeded at 2 × 10^3 cells per well in a 96-well plate and cultured overnight. The cells were then treated with different doses (5 µM, 10 µM, 15 µM, 20 µM, 25 µM, 30 µM, 35 µM, 40 µM in DMSO) for 72 h. Viability of the treated cultures was estimated by conversion of MTT to the insoluble formazan after 3h incubation at 37 °C and 5% CO2. The purple-colored formazan crystals were dissolved in DMSO, and absorbance was recorded at wavelengths 570/640 nm using the Bio-Rad Benchmark Plus Microplate Reader. The percent of viable cells was calculated ODtreated cells/ODcontrol cell wells × 100.

HT-1376 [1] = test: MTT antiproliferative assay; assay type: cell-based, human; settings: for IC50: Homo sapiens, HT-1376, MTT, 72 h, read-out: IC50 ± SD, HT-1376; for SI (selectivity index), HT-1376: IC50 UROtsa / IC50 HT-1376
Protocol: as §1, §2

UROtsa = test: MTT assay, non-tumorigenic immortalized urothelial cell line; assay type: cell-based, human; settings: for IC50: Homo sapiens, MTT, 72 h, non-tumorigenic cells, read-out: IC50 ± SD, UROtsa
Protocol: (§3) The synthesized hybrid conjugates 5a–d were evaluated for their antiproliferative activity against the established human bladder cancer cell lines T24 and 5637. Test compounds were dissolved in ultrapure dimethyl sulfoxide (DMSO), diluted in cell culture media, added to cells cultured in 96-well cluster wells, and incubated for 72 h. The concentration of DMSO in culture media was maintained at < 0.05%. As previously reported, the fraction of viable cells in the culture wells was compared to that in cultures with 0.05% DMSO-only using a colorimetric assay, the Methyl Tetrazolium Bromide (MTT) reduction assay. We determined the selectivity index (SI) of the compounds 5a–d against tumor cells by comparing their cytotoxicity to that of a non-tumorigenic breast epithelial cell line, MCF-12A, as well as a non-tumorigenic, immortalized urothelial cell line, UROtsa (Table 1, and Figure 2).
as §2

MB49 cells = test: Annexin V-FITC/PI apoptosis flow cytometry; assay type: cell-based, murine; settings: Mus musculus, MB49, 24 h
Protocol: (§4) The potential of cells treated with UA or 5c to undergo dose-dependent apoptosis was explored using quantitative flow cytometric analysis, as shown in Figure 4. Utilizing a kit that detects quantitative binding of Annexin V to externalized phosphatidyl serine during the apoptosis cascade and permeability of Propidium iodide (PI) in cells undergoing cell death, we determined the cells at various stages of cell death following 24h incubation with UA and 5c in various bladder cancer cells.
(§5) We used a fluorescence-based Annexin V binding assay to determine the fraction of the cell population undergoing early and late apoptosis due to the cytotoxicity of the drugs. Cells plated in a 60 mm dish overnight at 0.3 × 10^6 cells/well were incubated with the selected drug at several doses for 24 h. Subsequently, treated cells were labeled with FITC-Annexin V using a kit (eBioscience™ Annexin V Apoptosis Detection Kits; Invitrogen # 88-8005-72, Thermo Fisher Scientific, Seoul, Korea) as per the manufacturer’s instructions. Intact cell suspension labeled with FITC-Annexin V and PI was run on the NovoCyte Quanteon flow cytometer, and data were acquired in list mode. Acquired data were analyzed using NovoExpress software (version 1.6.1). Cells treated with Staurosporine (0.2 µM) act as a positive control.

5637 cells [2] = test: MTT antiproliferative assay; assay type: cell-based, human; settings: for IC50: Homo sapiens, 72 h, MTT, read-out: IC50 (Mean ± SD), 5637; for SI (selectivity index), 5637: IC50 MCF-12A / IC50 5637
Protocol: as §3, §2

T24 cells = test: MTT antiproliferative assay; assay type: cell-based, human; settings: for IC50: Homo sapiens, T-24, MTT, 72 h, read-out: IC50 (Mean ± SD), T24; for SI (selectivity index), T24: IC50 MCF-12A / IC50 T24
Protocol: as §3, §2

[3] = system: bladder cancer cell lines 5637, HT-1376, T-24, MB-49; test: Cell cycle analysis, statements across the tested cell lines; assay type: cell-based; settings: for effect on cell cycle distribution: 12 µM, bladder cancer cell lines
Text: (§6) Cells treated with some antiproliferative drugs are blocked from orderly progression from one stage of their mitotic cycle to the next due to inhibition of a specific stage of the cell cycle. Analysis by flow cytometry (FC) of DNA content in the nuclei of drug-treated cells is a well-established technique for evaluating the fractions of cells in each stage of the cell cycle based on their DNA content. In this study, we employed FC to examine whether treatment with UA or 5c affects the orderly cell cycle progression from G0/G1, S, and G2M before entering Mitosis (M). Figure 6 represents the effect of UA and 5c on cell cycle progression in four bladder cancer cell lines, 5637, HT-1376, T-24, and MB-49, after a […] treatment at a concentration of 12 µM. Following the treatment, nuclei suspensions from treated cells were prepared by direct cell lysis in a hypotonic solution, with simultaneous staining with PI (100 µg/mL). The resulting nuclei suspension and the samples were run on the flow cytometer and analyzed for DNA content.
(§7) Cells cultured in 35 mm diameter, 6-well cluster plates (Corning Inc., Corning, NY, USA) overnight at a density of 0.3 × 10^6 cells/well, and treated with various compounds at selected concentrations for 24 h. After completion of treatment, cells were washed twice with PBS, followed by the addition of Propidium Iodide (PI) containing […] solution [(0.1 mg/mL PI), 50mg Na-citrate, 15 µL of IGEPAL CA-630], 1 mL in each well, and incubated for 30–45 min at 37 °C and 5% CO2. After that data acquired using the NovoCyte Quanteon Flow Cytometer was analyzed using NovoExpress software (version 1.6.1).

5637 cells [4] = test: Annexin V-FITC/PI apoptosis flow cytometry; assay type: cell-based; settings: Homo sapiens, 24 h, read-out: Q3-3 (Q3, viable) cells
Protocol: as §4, §5

5637 = test: Cell cycle phase fractionation by flow cytometry (PI); assay type: cell-based, human; settings: 5637, 24 h, mean ± SD n=3
Text: as §6, §7

T24 = test: as above; assay type: cell-based, human; settings: T24, 24 h, mean ± SD n=3
Text: as §6, §7

HT-1376 [5] = test: as above; assay type: cell-based, human; settings: HT-1376, 24 h, mean ± SD n=3
Text: as §6, §7

IC50 (HT-1376 [1]) | IC50 (T24 cells) | Compound | SI (selectivity index), MB49 (MB49) | IC50 (MB49) | SI (selectivity index), HT-1376 (HT-1376 [1]) | IC50 (UROtsa) | IC50 (5637 cells [2]) | SI (selectivity index), 5637 (5637 cells [2]) | SI (selectivity index), T24 (T24 cells) | effect on cell cycle distribution [3] | Cell-Cycle Phase-Fractions G1 5637 | Cell-Cycle Phase-Fractions G2/M 5637 | Cell-Cycle Phase-Fractions S 5637 | Cell-Cycle Phase-Fractions G1 (T24) | Cell-Cycle Phase-Fractions G2/M (T24) | Cell-Cycle Phase-Fractions S (T24) | Cell-Cycle Phase-Fractions G1 (HT-1376 [5]) | Cell-Cycle Phase-Fractions G2/M (HT-1376 [5]) | Cell-Cycle Phase-Fractions S (HT-1376 [5]) | further results
21.9 ± 1.14 µM | 17.5 ± 0.98 µM | C[C@H]1[C@H](C)CC[C@]2(C(=O)O)CC[C@]3(C)C(=CC[C@@H]4[C@@]5(C)CC[C@H](O)C(C)(C)[C@@H]5CC[C@]43C)[C@H]12 [UA, Ursolic acid] | 6.26 | 10.7 ± 0.36 µM | 3.06 | 67 ± 7.15 µM | 13.4 ± 0.35 µM | 4.19 | 3.21 | more modest shift in phase distribution | 43.52 ± 0.88 % of total | 18.59 ± 2.05 % of total | 37.89 ± 1.16 % of total | 57.76 ± 2.60 % of total | 19.95 ± 1.82 % of total | 22.29 ± 0.77 % of total | 52.40 ± 0.56 % of total | 17.17 ± 1.04 % of total | 30.43 ± 0.48 % of total | viability at 10 µM (MB49 cells; read-out: Q4-3 (Q3, viable) cells, MB49, 10 µM, 24 h): 74.4%; viability at 15 µM (MB49 cells; read-out: Q4-3 (Q3, viable) cells, MB49, 15 µM, 24 h): 64.5%; viability at 10 µM (5637 cells [4]): 69.5%; viability at 15 µM (5637 cells [4]): 64.6%
12.7 ± 0.4 µM | 14.2 ± 1.01 µM | CC1CCC2(C(=O)OCCCCOC(=O)CCCCC3SCC4NC(=O)NC43)CCC3(C)C(=CCC4C5(C)CCC(O)C(C)(C)C5CCC43C)C2C1C [Compound 5c, 4-((5-((3aS,4S,6aR)-2-Oxohexahydro-1H-thieno [3,4-d]imidazol-4-yl)pentanoyl)oxy) butyl 3-hydroxy-urs-12-en-28-oate] | 4.63 | 13.6 ± 0.18 µM | 4.96 | 62.9 ± 3.84 µM | 11 ± 0.19 µM | 7.58 | 5.85 | G1 phase arrest | 47.78 ± 0.60 % of total | 16.79 ± 0.73 % of total | 35.42 ± 1.33 % of total | 55.10 ± 0.37 % of total | 15.20 ± 0.02 % of total | 29.70 ± 0.39 % of total | 52.11 ± 0.06 % of total | 16.15 ± 0.71 % of total | 31.73 ± 0.65 % of total | toxicity to non-tumorigenic cells (UROtsa; UROtsa): not toxic; viability at 10 µM (MB49 cells; MB49, 10 µM, 24 h, read-out: Q4-3 (Q3, viable) cells): 39.4%; viability at 15 µM (MB49 cells; MB49, 15 µM, 24 h, read-out: Q4-3 (Q3, viable) cells): 35.6%; IC50 in µM (selectivity index in parentheses), T-24 (T24 cells; IC50 UROtsa / IC50 T-24): 14.20 ± 1.01 (4.43); increase in the G1-phase population compared with untreated control ([3]; across the tested cell lines): 20–30%; viability at 10 µM (5637 cells [4]; 5637, 10 µM): 33%; viability at 15 µM (5637 cells [4]; 5637, 15 µM): 27.9%
